Columns and labels:
Test in all cases: In-vitro kinase profiling, radioisotope screening assay (Signal Chem)
Type in all cases: biochemical
[1] = molecular target: T1, ASK1 (Homo sapiens, UniProt Q99683); settings: 5 μM compound, 50 μM ATP, vs vehicle control; negative = inhibition
T1 construct: purchased Signal Chem (Richmond, BC, Canada)
T1 sequence (Q99683 1-1374): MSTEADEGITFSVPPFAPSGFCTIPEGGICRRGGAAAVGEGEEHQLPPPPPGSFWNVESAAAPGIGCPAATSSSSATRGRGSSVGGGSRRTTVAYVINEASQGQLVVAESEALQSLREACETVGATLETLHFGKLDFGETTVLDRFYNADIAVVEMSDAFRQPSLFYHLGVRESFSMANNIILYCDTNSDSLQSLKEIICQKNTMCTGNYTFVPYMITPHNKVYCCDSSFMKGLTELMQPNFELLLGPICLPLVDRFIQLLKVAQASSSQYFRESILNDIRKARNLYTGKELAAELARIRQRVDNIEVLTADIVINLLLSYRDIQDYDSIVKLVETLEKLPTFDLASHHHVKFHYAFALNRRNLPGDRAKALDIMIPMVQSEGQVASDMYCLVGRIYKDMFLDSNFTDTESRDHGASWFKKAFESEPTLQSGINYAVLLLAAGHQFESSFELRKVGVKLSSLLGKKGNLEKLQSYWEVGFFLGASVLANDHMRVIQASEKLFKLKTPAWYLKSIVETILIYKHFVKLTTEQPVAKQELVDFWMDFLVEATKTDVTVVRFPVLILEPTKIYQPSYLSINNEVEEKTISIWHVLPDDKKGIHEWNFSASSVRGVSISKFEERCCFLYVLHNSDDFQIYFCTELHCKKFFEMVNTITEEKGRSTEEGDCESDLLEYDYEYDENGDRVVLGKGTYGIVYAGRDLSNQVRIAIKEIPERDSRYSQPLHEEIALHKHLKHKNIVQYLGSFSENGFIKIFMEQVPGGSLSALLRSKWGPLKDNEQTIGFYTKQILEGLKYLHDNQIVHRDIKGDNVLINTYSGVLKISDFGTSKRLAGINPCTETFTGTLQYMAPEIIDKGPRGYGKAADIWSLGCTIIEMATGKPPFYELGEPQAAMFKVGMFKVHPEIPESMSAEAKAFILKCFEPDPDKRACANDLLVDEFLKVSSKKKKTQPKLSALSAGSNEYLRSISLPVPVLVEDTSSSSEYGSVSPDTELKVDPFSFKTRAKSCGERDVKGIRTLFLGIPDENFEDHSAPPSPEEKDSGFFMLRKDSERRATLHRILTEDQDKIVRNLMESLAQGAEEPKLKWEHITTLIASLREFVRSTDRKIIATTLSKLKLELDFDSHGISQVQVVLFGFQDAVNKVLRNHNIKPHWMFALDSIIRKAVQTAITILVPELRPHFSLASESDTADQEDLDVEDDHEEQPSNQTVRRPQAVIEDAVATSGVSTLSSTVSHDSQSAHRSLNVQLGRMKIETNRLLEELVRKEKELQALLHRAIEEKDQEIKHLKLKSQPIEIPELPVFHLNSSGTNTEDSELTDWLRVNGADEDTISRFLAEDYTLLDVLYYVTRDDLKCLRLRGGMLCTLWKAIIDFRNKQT
Method: (§1) Kinase profiling of PK analogs. The inhibitory effect of lead PK analogs were tested against a panel of 15 protein kinase targets (TABLE 1) to develop better lead candidates without “off” target effects. The selectivity assay was performed at Signal Chem™ (Richmond, BC, Canada) by profiling against protein kinase targets using the “Gold Standard” radioisotope screening assay format. This assay format gave the highest signal noise ratio and allowed the direct measurement of catalytic activity of a protein kinase.
(§2) All assays were performed in triplicate in a 96-well assay format and the % error between triplicates is <10%. Protein kinase assays was performed in the presence of 50 μM ATP at 30° C. for 15 min. The activity of the enzymes in the presence of 5 μM PK analogs was compared to that in the vehicle control and expressed as a percent change in activity relative to that observed in the vehicle control. In TABLE 1, the results are expressed as percent activity change compared to control. The intra-assay variability was determined to be less than 10%. Inhibition of target activity by the compound is shown by a negative value, while activation of target activity is shown by positive value, with values >10% considered to be highly significant.

[2] = molecular target: T2, ERKI (Homo sapiens, UniProt P27361); settings: 5 μM compound, 50 μM ATP, vs vehicle control; negative = inhibition
T2 construct: purchased Signal Chem (Richmond, BC, Canada)
Method: as §1, §2

[3] = molecular target: T3, PKAα (Homo sapiens, UniProt P17612); settings: 5 μM compound, 50 μM ATP, vs vehicle control; negative = inhibition
T3 construct: purchased Signal Chem (Richmond, BC, Canada)
Method: as §1, §2

[4] = molecular target: T4, AKT1 (Homo sapiens, UniProt P31749); settings: for % activity change: 5 μM compound, 50 μM ATP, vs vehicle control, negative = inhibition
T4 construct: purchased Signal Chem (Richmond, BC, Canada)
Method: as §1, §2

[5] = molecular target: T5, PKCβ (Homo sapiens, UniProt P05771); settings: 5 μM compound, 50 μM ATP, vs vehicle control; negative = inhibition
T5 construct: purchased Signal Chem (Richmond, BC, Canada)
Method: as §1, §2

[6] = molecular target: T6, PKCε (Homo sapiens, UniProt Q02156); settings: for % activity change: 5 μM compound, 50 μM ATP, vs vehicle control, negative = inhibition
T6 construct: purchased Signal Chem (Richmond, BC, Canada)
T6 sequence (Q02156 1-737): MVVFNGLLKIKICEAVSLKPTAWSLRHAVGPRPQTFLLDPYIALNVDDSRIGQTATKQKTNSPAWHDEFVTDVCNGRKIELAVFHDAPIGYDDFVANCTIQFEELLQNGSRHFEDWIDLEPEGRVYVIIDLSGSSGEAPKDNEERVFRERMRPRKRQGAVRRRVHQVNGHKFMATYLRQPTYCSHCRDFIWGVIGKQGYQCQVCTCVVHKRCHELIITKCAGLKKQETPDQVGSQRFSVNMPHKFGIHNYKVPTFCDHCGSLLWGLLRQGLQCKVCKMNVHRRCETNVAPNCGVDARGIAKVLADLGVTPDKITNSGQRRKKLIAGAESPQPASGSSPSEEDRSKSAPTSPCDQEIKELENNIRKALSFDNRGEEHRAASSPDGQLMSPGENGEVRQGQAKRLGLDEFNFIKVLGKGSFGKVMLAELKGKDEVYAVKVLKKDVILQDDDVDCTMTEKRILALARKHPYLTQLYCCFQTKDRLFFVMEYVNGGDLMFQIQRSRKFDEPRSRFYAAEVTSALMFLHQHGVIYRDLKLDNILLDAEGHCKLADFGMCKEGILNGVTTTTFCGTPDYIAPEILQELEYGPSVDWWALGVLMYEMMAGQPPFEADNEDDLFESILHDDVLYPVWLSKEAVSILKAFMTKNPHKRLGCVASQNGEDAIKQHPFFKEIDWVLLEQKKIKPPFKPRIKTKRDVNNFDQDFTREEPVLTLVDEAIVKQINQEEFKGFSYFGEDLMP
Method: as §1, §2

[7] = 5 μM concentration, given as positive inhibition, read-out: inhibited by % compared to control

T2 sequence (P27361 whole entry): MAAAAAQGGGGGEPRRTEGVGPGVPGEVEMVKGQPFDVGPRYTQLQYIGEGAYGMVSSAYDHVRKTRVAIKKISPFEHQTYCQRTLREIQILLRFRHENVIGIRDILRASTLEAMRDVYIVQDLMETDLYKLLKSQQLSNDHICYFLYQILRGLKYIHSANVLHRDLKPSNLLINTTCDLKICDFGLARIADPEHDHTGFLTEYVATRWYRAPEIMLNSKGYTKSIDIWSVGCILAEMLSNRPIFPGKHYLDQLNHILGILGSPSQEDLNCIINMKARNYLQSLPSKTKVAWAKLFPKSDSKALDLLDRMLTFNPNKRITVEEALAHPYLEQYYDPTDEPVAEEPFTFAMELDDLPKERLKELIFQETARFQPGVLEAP
T5 sequence (P05771 whole entry): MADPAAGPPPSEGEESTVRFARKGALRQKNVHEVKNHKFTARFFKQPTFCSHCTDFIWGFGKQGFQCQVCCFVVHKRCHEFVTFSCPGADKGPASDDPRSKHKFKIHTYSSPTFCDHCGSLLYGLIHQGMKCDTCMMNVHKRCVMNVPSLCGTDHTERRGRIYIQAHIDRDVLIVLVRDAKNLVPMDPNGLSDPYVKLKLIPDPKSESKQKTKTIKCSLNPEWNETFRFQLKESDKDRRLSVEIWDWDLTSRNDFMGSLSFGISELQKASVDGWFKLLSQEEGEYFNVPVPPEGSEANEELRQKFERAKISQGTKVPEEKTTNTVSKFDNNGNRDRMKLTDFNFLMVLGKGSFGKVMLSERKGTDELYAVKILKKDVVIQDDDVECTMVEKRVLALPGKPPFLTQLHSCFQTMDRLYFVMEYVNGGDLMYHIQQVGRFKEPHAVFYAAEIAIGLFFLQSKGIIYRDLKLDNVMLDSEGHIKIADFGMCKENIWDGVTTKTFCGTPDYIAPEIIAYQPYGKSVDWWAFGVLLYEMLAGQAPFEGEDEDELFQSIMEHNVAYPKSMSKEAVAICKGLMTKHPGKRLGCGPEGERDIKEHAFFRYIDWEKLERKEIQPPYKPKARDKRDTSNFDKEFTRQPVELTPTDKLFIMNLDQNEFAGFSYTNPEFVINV
T4 sequence (P31749 whole entry): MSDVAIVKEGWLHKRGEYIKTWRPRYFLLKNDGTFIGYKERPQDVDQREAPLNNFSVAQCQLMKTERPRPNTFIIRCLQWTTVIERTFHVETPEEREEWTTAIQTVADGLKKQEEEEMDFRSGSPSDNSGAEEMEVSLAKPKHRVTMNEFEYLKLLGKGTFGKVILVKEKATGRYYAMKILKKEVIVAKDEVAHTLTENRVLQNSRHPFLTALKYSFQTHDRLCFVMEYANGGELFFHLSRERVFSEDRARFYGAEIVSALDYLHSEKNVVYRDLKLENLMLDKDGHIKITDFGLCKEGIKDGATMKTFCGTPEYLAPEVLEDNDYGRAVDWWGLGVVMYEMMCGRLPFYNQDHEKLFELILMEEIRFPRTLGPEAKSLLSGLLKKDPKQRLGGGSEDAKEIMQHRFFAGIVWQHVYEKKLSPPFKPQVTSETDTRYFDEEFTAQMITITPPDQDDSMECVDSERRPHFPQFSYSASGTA

Structure (SMILES) | % activity change [1] [%] | % activity change [2] [%] | % activity change [3] [%] | % activity change [4] [%] | % activity change [5] [%] | % activity change [6] [%] | inhibited by % compared to control ([4]; 5 μM concentration, given as positive inhibition) [%] | inhibition at 5 µM [4, 7] [%] | inhibition at 5 µM [6, 7] [%]
Oc1cc(O)c(Cc2c(O)cc(O)cc2O)c(O)c1 [PK103] | 0 | 0 | 3 | −6 | 3 | 5 | – | – | –
CC(=O)c1c(O)c(C)c(O)c(Cc2c(O)c3c(c4c2OC(c2ccccc2)CC4=O)OC(C)(C)C=C3)c1O (stereo not drawn) [PK202] | 4 | 4 | 10 | −12 | 1 | −3 | 12 | – | –
CC1(C)C=Cc2c(O)cc(O)c(C(=O)/C=C/c3ccccc3)c2O1 [PK302] | 0 | 3 | 1 | −10 | 6 | 6 | – | – | –
CC(=O)c1c(O)c(C)c(O)c(Cc2c(O)c3c(c(C(=O)/C=C/c4ccccc4)c2O)OC(C)(C)C=C3)c1O [Rottlerin, (E)-1-[6-[(3-acetyl-2,4,6-trihydroxy-5-methylphenyl)methyl]-5,7-dihydroxy-2,2-dimethylchromen-8-yl]-3-phenylprop-2-en-1-one] | 2 | 3 | 1 | −14 | 0 | −25 | – | 14 | 25
